The text below walks through data of US20260209226A1 (EmpathBio, Inc., priority 2023, published 2026).

In general, inhibition refers to the change of the read-out against control, counted positive when it falls. Usually IC50 stands for the concentration needed to halve the response being measured.

What all share (format): cell-based
For experiment [1], the target named is T1, Human Serotonin Transporter (SERT) (Homo sapiens, UniProt P31645).
T1 construct: expressed in transfected cells; host or cells: HEK cells
The experiment can be described thus: Human Serotonin Transporter (SERT) Uptake Inhibition Assay ([3H]-Serotonin uptake in HEK cells). The note with it: HEK cells expressing recombinant SERT, individual experiments separated by commas; for SERT UPTAKE INHIBITION (%) @1 uM: 1 uM test compound; for SERT UPTAKE INHIBITION (%) @100 uM: 100 uM test compound; for inhibition at 10 µM: HEK293, 10 uM test compound; for inhibition at 100 µM: HEK293, 100 uM test compound; for inhibition at 1 µM: HEK293, 1 uM test compound. As for the experimental part:
Compound activity is assessed using an in vitro assay. Briefly, HEK cells expressing recombinant serotonin transporter (SERT) are plated at 50,000 cells/well on a 96 well plate pre-coated with Matrigel one day prior to the experiment. Culture medium (DMEM/FBS) is removed and 30 μl of assay buffer (Tris-HCl 50 mM, EDTA 4 mM, BDA 0.1%) with the desired concentration of test compound is added. The plate is incubated at 37° C. for 15 minutes. Assay buffer (30 μl) containing the same concentration of compound diluted in [^3H]-Serotonin uptake buffer (final concentration 10 nM) is added to each well and the plate is incubated at 37° C. for 5 minutes. The reaction mixture is removed, and the cells are washed with 100 μl ice-cold assay buffer twice. Lysis buffer (50 μl) is added to the cells followed by a 5 minute incubation with gentle shaking at room temperature. The lysate is transferred to a 96 well isoplate. Optiphase supermix (100 μl) is added to each well with complete mixing. Radioactivity is counted with Microbeta Counter and reported as counts per minute (CPM). Fluoxetine is used as a control to measure non-specific uptake and for data normalization. Percent inhibition of [^3H]-Serotonin uptake calculations: 100×(1−(CPMtest sample−CPMnon_specific uptake)/(CPMMAX−CPMMIN)) are summarized in Table 2. Subsequent experiments using the same assay were performed with select compounds with a greater range of concentrations (10 half-log dilutions from a top concentration of 100 μM), allowing for the determination of IC50s. IC50s were determined using the log(inhibitor) vs. normalized response—Variable slope model in GraphPad Prism 10.1.0 and are summarized in Table 3.

Experiment [2] addresses T2, Human Dopamine Transporter (DAT) (Homo sapiens, UniProt Q01959).
T2 construct: expressed in transfected cells; host or cells: HEK cells
The experiment is described as follows: Human Dopamine Transporter (DAT) Uptake Inhibition Assay ([3H]-Dihydroxyphenylethylamine uptake in HEK cells). The settings on record: HEK cells expressing recombinant DAT, individual experiments separated by commas. As for the experimental part:
(§1) Compound activity is assessed using an in vitro assay. Briefly, HEK cells expressing recombinant dopamine transporter (DAT) are plated at 50,000 cells/well on a 96 well plate pre-coated with Matrigel one day prior to the experiment. Culture medium (DMEM/FBS) is removed and 30 μl of assay buffer (Tris-HCl 50 mM, EDTA 4 mM, BDA 0.1%) with the desired concentration of test compound is added. The plate is incubated at 37° C. for 15 minutes. Assay buffer (30 μl) containing the same concentration of compound diluted in [^3H]-Dihydroxyphenylethylamine uptake buffer (final concentration 20 nM) is added to each well and the plate is incubated at 37° C.; for 5 minutes. The reaction mixture is removed, and the cells are washed with 100 μl ice-cold assay buffer twice. Lysis buffer (50 μl) is added to the cells followed by a 5 minute incubation with gentle shaking at room temperature. The lysate is transferred to a 96 well isoplate. Optiphase supermix (100 μl) is added to each well with complete mixing. Radioactivity is counted with Microbeta Counter and reported as CPM. Nomifensine is used as a control to measure non-specific uptake and for data normalization. Percent inhibition of [^3H]-Dihydroxyphenylethylamine uptake calculations: 100×(1−(CPMtest sample−CPMnon-specific uptake)/(CPMMAX−CPMMIN)). Test compounds were screened at 10 concentrations at half-log dilutions from a top concentration of 100 μM. IC50s were determined using the log(inhibitor) vs. normalized response—Variable slope model in GraphPad Prism 10.1.0 and are summarized in Table 3.

For experiment [3], the target named is T3, Human Norepinephrine Transporter (NET) (Homo sapiens, UniProt P23975).
T3 construct: expressed in transfected cells; host or cells: HEK cells
The experiment can be described thus: Human Norepinephrine Transporter (NET) Uptake Inhibition Assay ([3H]-Norepinephrine uptake in HEK cells). The note with it: HEK cells expressing recombinant NET, individual experiments separated by commas. The method, then: as §1, with “Norepinephrine” for “dopamine”, “(NET)” for “(DAT)”, “[^3H]-Norepinephrine” for “[^3H]-Dihydroxyphenylethylamine”, “C.” for “C.;”, “Desiparmine” for “Nomifensine”, “100×(1−CPMtest sample−CPMnon_specific” for “100×(1−(CPMtest sample−CPMnon-specific”

[4] abbreviates: 10 half-log dilutions from 100 μM, read-out: DAT Uptake Inhibition IC50.
[5] abbreviates: 10 half-log dilutions from 100 μM, read-out: SERT Uptake Inhibition IC50.
Setting [6] is: 10 half-log dilutions from 100 μM, read-out: NET Uptake Inhibition IC50.

Molecules are shown by their SMILES. Values joined by “and” are separate entries in the source; they are usually repeats but may differ in a detail not shown here. Equal values may be shown once. Read-outs that look alike come from different tables or passages of the source.

T3 sequence (P23975 whole entry): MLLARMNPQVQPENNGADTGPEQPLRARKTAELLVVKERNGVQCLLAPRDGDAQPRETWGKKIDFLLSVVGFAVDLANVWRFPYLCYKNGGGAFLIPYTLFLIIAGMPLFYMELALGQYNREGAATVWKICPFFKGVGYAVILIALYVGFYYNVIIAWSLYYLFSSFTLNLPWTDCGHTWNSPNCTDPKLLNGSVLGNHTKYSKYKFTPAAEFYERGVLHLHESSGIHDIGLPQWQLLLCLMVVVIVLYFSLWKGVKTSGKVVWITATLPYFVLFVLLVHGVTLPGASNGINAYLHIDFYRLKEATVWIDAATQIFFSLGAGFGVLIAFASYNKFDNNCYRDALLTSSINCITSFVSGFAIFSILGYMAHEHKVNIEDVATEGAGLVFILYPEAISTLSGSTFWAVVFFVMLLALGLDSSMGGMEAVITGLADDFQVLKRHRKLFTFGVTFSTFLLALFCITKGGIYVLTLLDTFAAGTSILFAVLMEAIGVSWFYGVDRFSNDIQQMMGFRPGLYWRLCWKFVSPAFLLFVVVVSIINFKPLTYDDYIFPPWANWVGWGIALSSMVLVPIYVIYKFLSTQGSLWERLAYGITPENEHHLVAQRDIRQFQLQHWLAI
T1 sequence (P31645 whole entry): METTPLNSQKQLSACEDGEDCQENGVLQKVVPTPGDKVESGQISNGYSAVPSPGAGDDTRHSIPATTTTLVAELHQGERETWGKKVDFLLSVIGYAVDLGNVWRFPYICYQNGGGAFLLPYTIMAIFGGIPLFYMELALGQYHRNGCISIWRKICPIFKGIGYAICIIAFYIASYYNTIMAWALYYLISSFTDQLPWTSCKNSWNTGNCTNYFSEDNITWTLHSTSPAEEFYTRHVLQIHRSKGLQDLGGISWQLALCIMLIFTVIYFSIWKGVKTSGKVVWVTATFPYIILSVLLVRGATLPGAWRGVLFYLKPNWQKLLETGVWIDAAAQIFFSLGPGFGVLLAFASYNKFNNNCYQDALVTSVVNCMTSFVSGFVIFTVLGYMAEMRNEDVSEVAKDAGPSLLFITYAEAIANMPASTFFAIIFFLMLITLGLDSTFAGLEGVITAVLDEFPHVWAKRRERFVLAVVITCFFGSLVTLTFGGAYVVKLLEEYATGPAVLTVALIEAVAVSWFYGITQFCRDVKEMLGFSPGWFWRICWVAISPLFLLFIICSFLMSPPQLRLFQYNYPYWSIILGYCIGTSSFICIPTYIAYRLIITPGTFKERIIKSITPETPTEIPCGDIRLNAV
T2 sequence (Q01959 whole entry): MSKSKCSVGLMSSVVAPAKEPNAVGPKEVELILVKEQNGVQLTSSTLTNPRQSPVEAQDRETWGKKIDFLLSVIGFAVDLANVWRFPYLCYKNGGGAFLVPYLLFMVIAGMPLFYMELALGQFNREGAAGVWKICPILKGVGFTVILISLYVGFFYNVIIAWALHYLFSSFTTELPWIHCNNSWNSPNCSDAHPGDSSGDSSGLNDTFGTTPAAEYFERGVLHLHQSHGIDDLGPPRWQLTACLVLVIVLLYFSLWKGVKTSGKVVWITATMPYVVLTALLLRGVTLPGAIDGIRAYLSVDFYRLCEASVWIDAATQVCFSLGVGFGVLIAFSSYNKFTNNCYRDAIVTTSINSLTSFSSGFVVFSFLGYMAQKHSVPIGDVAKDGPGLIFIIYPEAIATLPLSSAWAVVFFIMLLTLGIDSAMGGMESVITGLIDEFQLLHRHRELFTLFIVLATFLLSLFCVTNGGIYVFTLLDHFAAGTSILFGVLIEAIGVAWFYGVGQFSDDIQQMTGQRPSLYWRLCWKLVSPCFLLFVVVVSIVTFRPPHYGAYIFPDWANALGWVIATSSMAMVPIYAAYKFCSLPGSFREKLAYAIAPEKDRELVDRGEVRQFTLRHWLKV

Take `CNC(C)Cc1ccc2c(c1)OCO2` (stereo not drawn) [18 MDMA, 3,4-methylenedioxymethamphetamine, reference compound]: the “SERT UPTAKE INHIBITION (%) @1 uM” value in experiment [1] is 25.0% and −1.67%. Moreover, the “SERT UPTAKE INHIBITION (%) @10 uM” value in experiment [1] (10 uM test compound, 10 µM) turned out to be 70.1%. For the same compound, in experiment [1], the “SERT UPTAKE INHIBITION (%) @100 uM” value is 88.7% and 98.0% and 86.2%. Also, in experiment [1], the inhibition at 10 µM worked out at 53.3%. Further, the inhibition at 100 µM in experiment [1] stood at 85.1%. Also, the IC50 in experiment [1] (SERT Uptake Inhibition IC50, 10 half-log dilutions from 100 μM) was 5.25 µM and 5.08 µM and 3.19 µM and 1.48 µM and 2.07 µM and 2.21 µM; in experiment [2] (setting [4]) it was 5.29 µM; in experiment [2] (DAT Uptake Inhibition IC50, 10 half-log dilutions from 100 μM), 3.5 µM and 5.48 µM and 7.48 µM and 10.3 µM and 13.5 µM; in experiment [3] (NET Uptake Inhibition IC50, 10 half-log dilutions from 100 μM), 1.4 µM and 2.37 µM and 0.93 µM and 1.34 µM and 2.27 µM and 2.89 µM.

With `CNC(C)Cc1ccc2ncsc2c1` (stereo not drawn) [Compound 2], in experiment [1], the “SERT UPTAKE INHIBITION (%) @1 uM” value is 43.44% and −5.16%; the “SERT UPTAKE INHIBITION (%) @100 uM” value was 93.94% and 91.08%; the inhibition at 10 µM turned out to be 67.9%; the inhibition at 100 µM turned out to be 88.8%. Moreover, in experiment [1] (setting [5]), the IC50 was determined as 10.3 µM. In addition, the IC50 in experiment [2] (setting [4]) is 21.8 µM. Besides, the IC50 in experiment [3] (setting [6]) was 4.7 µM.

On to `CNC(C)Cc1ccn2ccnc2c1` (stereo not drawn) [Compound 1], for which, in experiment [1], the inhibition at 1 µM is 3.6% and the inhibition at 100 µM was found to be 91.6%.

Take `CN[C@@H](C)Cc1ccc2ncsc2c1` [Compound 16, (S)-1-(benzo[d]thiazol-6-yl)-N-methylpropan-2-amine]: the values for the IC50 in experiment [1] (setting [5]), in experiment [2] (setting [4]) and in experiment [3] (setting [6]) were 5.1 µM, more than 100 µM and 4.2 µM, respectively. The inhibition at 10 µM in experiment [1] was determined as 57.7%. Also, the inhibition at 100 µM in experiment [1] was determined as 99.1%.

Consider `CC(N)Cc1ccc2scnc2c1` (stereo not drawn) [Compound 8], for which, in experiment [1], the “SERT UPTAKE INHIBITION (%) @100 uM” value stood at 90.93%, the inhibition at 1 µM was 24%, the inhibition at 10 µM was 68.7% and the inhibition at 100 µM came to 82.4%. For the same compound, the IC50 in experiment [1] (setting [5]) amounted to 11.5 µM. Further, the IC50 in experiment [2] (setting [4]) was found to be 20.7 µM. Further, the IC50 in experiment [3] (setting [6]) is more than 100 µM.

On to `CC(N)Cc1ccc2ncoc2c1` (stereo not drawn) [Compound 9, 1-(benzo[d]oxazol-6-yl)propan-2-amine], for which, in experiment [1], the inhibition at 10 µM is -2.39% and the inhibition at 100 µM is 87.9%.

For the compound `CC(N)Cc1ccc2ncsc2c1` (stereo not drawn) [Compound 6], the “SERT UPTAKE INHIBITION (%) @1 uM” value in experiment [1] is 51.1% and 4.94%. Also, in experiment [1], the “SERT UPTAKE INHIBITION (%) @100 uM” value is given as 96.89%. For the same compound, the IC50 is 7.5 µM in experiment [1] (setting [5]), more than 100 µM in experiment [2] (setting [4]) and 1.1 µM in experiment [3] (setting [6]). In experiment [1], the inhibition at 100 µM was 94.6%.

`CC(N)Cc1ccn2ncnc2c1` (stereo not drawn) [Compound 7]: in experiment [1], the “SERT UPTAKE INHIBITION (%) @1 uM” value was 11.89% and −1.06%; the “SERT UPTAKE INHIBITION (%) @100 uM” value was 84.23% and 59.35%.

As to `CNC(C)Cc1ccc2scnc2c1` (stereo not drawn) [Compound 4], in experiment [1], the “SERT UPTAKE INHIBITION (%) @100 uM” value is recorded as 87.43%, the inhibition at 1 µM was 20.2%, the inhibition at 10 µM is 61.8% and the inhibition at 100 µM stood at 91.5%. Also, the IC50 in experiment [1] (setting [5]) was 11.3 µM. Further, the IC50 in experiment [2] (setting [4]) was determined as 35.8 µM. Moreover, the IC50 in experiment [3] (setting [6]) was 8.3 µM.

Regarding `CNC(C)Cc1ccc2ncnn2c1` (stereo not drawn) [Compound 12, methyl(1-{[1,2,4]triazolo[1,5-a]pyridin-6-yl}propan-2-yl)amine], in experiment [1], the inhibition at 10 µM stood at 0.25% and the inhibition at 100 µM is 83.2%.

Take `CN[C@H](C)Cc1ccc2ncsc2c1` [Compound 17, (R)-1-(benzo[d]thiazol-6-yl)-N-methylpropan-2-amine]: in experiment [1], the inhibition at 10 µM stood at 32.5% and the inhibition at 100 µM was 95.7%.

With `CNC(C)Cc1ccn2ncnc2c1` (stereo not drawn) [Compound 3], in experiment [1], the “SERT UPTAKE INHIBITION (%) @1 uM” value is −1.21% and −1.77%; the “SERT UPTAKE INHIBITION (%) @100 uM” value is 69.13%; the inhibition at 100 µM turned out to be 78.4%.

`CNC(C)Cc1ccc2conc2c1` (stereo not drawn) [Compound 10, [1-(2,1-benzoxazol-6-yl)propan-2-yl](methyl)amine]: in experiment [1], the inhibition at 10 µM came to 48.3% and the inhibition at 100 µM stood at 96.8%.

As for `C[C@H](N)Cc1ccc2ncsc2c1` [Compound 14, (S)-1-(benzo[d]thiazol-6-yl)propan-2-amine], the IC50 is 6.6 µM in experiment [1] (setting [5]), more than 100 µM in experiment [2] (setting [4]) and 5.8 µM in experiment [3] (setting [6]). Moreover, the inhibition at 10 µM in experiment [1] turned out to be 46.6%. Further, the inhibition at 100 µM in experiment [1] was 98.9%.

Regarding `CC(N)Cc1ccn2ccnc2c1` (stereo not drawn) [Compound 5], in experiment [1], the inhibition at 1 µM was -0.48% and the inhibition at 100 µM turned out to be 90.2%.

For `CC(N)Cc1ccc2conc2c1` (stereo not drawn) [Compound 11, 1-(2,1-benzoxazol-6-yl) propan-2-amine], in experiment [1], the inhibition at 10 µM was 45.5% and the inhibition at 100 µM stood at 96.6%.

With `C[C@@H](N)Cc1ccc2ncsc2c1` [Compound 15, (R)-1-(benzo[d]thiazol-6-yl)propan-2-amine], in experiment [1], the inhibition at 10 µM was determined as 38% and the inhibition at 100 µM was found to be 97.5%.

Take `CC(N)Cc1ccc2ncnn2c1` (stereo not drawn) [Compound 13]: in experiment [1], the inhibition at 10 µM came to 1.34% and the inhibition at 100 µM worked out at 73.1%.
